Literature values as cited in patent US7759468B1, “Bioactive peptide-based probes” (priority 2003, dated 2010).

Test system: L. lactis ssp. lactis C2
Conditions: known / from the literature; cited from earlier work

Glu-Glu [Glu-Glu peptide]
Inhibition of growth: potent inhibitor of growth
